Assay results: patent US9656960B2, “Inhibitors of microsomal triglyceride transfer protein and apo-B secretion” (Surface Logix, Inc., priority 2005, dated 2017)

Key:
Apo-B [1] = assay: Apo-B secretion assay in Caco-2 cells (ELISA); assay type: cell-based; conditions: Homo sapiens
Procedure: (§1) The following protocol is written for HepG2 cells types, but the same or similar protocol may be used with other cell types, such as Caco-2 cells.
(§2) HepG2 cells were grown in MEM Eagle's medium containing 10% fetal bovine serum with 1% penicillin/streptomycin in an incubator (5% CO2, 100% relative humidity, 37° C.). At ca. 85% confluency, the cells were treated with test compounds (0.2% DMSO) at appropriate concentrations in triplicate. After 24 hour incubation with the test compounds, growth media were collected from each sample. Concentrations for apo-B and apoA1 were determined using ELISA. Mouse anti-human Apo-B and ApoA1 antibody and Alk-phos conjugated secondary antibody (goat) was used in ELISA. Triplicate data in six half-log concentrations were used to calculate an IC50 value for each compound.

Apo-B [2] = assay: Apo-B secretion assay in HepG2 cells (ELISA); assay type: cell-based; conditions: Homo sapiens, 24 hour incubation, ELISA of growth media
Procedure: A test compound is considered to be active if it is active in any of the following screens. The activity of a compound according to the invention can be assessed by measuring inhibition of apo B secretion in HepG2 cells.
as §1, §2

Caco-2 = assay: Bidirectional Caco-2 permeability assay; assay type: in vitro ADME; conditions: bidirectional Caco-2 assay, analysis by fluorescence and HPLC
Procedure: The following table (Table 1) depicts the activity of several compounds of Formula I or II according to the present invention. Permeability was measured in a bidirectional Caco-2 assay with analysis by fluorescence and HPLC.

ApoA1 [3] = assay: ApoA1 secretion assay in Caco-2 cells (ELISA); assay type: cell-based; conditions: Homo sapiens
Procedure: as §1, §2

ApoA1 [4] = assay: ApoA1 secretion assay in HepG2 cells (ELISA); assay type: cell-based; conditions: Homo sapiens, 24 hour incubation, ELISA of growth media
Procedure: as §1, §2

Row | IC50 (Apo-B [1]) | IC50 (Apo-B [2]) | Caco-2 (10-6 cm/sec) (Caco-2) | IC50 (ApoA1 [3]) | IC50 (ApoA1 [4]) | Structure (SMILES)
1 | 16 nM | 0.7 nM | 0 10-6 cm/sec | > 30000 nM | > 30000 nM | CC(C)Oc1cccc(C(=O)Nc2ccc3c(c2)CCN(C(=O)Oc2ccccc2)C3)c1-c1ccc(C(F)(F)F)cc1 [Compound 17]
2 | 11 nM | 2.3 nM | 0 10-6 cm/sec | > 30000 nM | > 30000 nM | COc1cccc(C(=O)Nc2ccc3c(c2)CCN(C(=O)Oc2ccc(F)cc2)C3)c1-c1ccc(C(F)(F)F)cc1 [Compound 16]
3 | 60 nM | 6 nM | 0 10-6 cm/sec | > 30000 nM | > 30000 nM | COc1cccc(C(=O)Nc2ccc3c(c2)CCN(C(=O)OC(C)(C)C)C3)c1-c1ccc(C(F)(F)F)cc1 [Compound 15]
4 | 4400 nM | 230 nM | 0 10-6 cm/sec | > 30000 nM | > 30000 nM | COc1cccc(C(=O)Nc2ccc3c(c2)CCN(c2nc(-c4ccccc4)cs2)C3)c1-c1ccc(C(F)(F)F)cc1 [Compound 14]

Second part, the compound before the results:

Row | Structure (SMILES) | IC50 (Apo-B [1]) | IC50 (Apo-B [2]) | Caco-2 (10-6 cm/sec) (Caco-2) | IC50 (ApoA1 [3]) | IC50 (ApoA1 [4])
5 | O=C(Nc1ccc2c(c1)CCN(C(=O)OCc1ccccc1)C2)c1ccccc1-c1ccc(C(F)(F)F)cc1 [Compound 12] | 110 nM | 220 nM | 0 10-6 cm/sec | > 30000 nM | > 30000 nM
6 | COCCCNC(=S)N1CCc2cc(NC(=O)c3ccccc3-c3ccc(C(F)(F)F)cc3)ccc2C1 [Compound 13] | 15 nM | 30 nM | 30 10-6 cm/sec | > 30000 nM | > 30000 nM
7 | O=C(Nc1ccc2c(c1)CCN(C(=S)NCc1ccccc1)C2)c1ccccc1-c1ccc(C(F)(F)F)cc1 [Compound 10] | 40 nM | 3 nM | 0 10-6 cm/sec | > 30000 nM | > 30000 nM
8 | COc1cccc(C(=O)Nc2ccc3c(c2)CCN(C(=O)Oc2ccccc2)C3)c1-c1ccc(C(F)(F)F)cc1 [Compound 11] | 7.7 nM | 1.6 nM | 0 10-6 cm/sec | > 30000 nM | > 30000 nM
